Data as given in patent publication US10968218B2, “Tetrahydropyridopyrimidines for the treatment and prophylaxis of hepatitis B virus infection” (Hoffmann-La Roche Inc., priority 2016, dated 2021).

Test system: HBsAg
Experiment: HBsAg assay (CLIA of secreted HBsAg in HepG2.2.15 culture supernatant)
Assay type: cell-based, HBV
Details: Hepatitis B virus
Protocol: HepG2.2.15 cells (Acs et al. Proc Natl Acad Sci USA, 84, (1987), 4641-4), a constitutively HBV-expressing cell line were cultured in DMEM+Glutamax-I medium (Invitrogen, Carlsbad, Calif., USA), supplemented with 10% fetal bovine serum (Invitrogen) and G418 (Invitrogen) at a final concentration of 200 mg/L and maintained in 5% CO2 at 37° C.
HepG2.2.15 cells were seeded in duplicate into white, 96-well plates at 1.5×10^4 cells/well. The cells were treated with a three-fold serial dilution series of the compounds in DMSO. The final DMSO concentration in all wells was 1% and DMSO was used as no drug control.
The HBsAg chemiluminescence immunoassay (CLIA) kit (Autobio Diagnostics Co., Zhengzhou, China, Catalog number: CL0310-2) was used to measure the levels of secreted HBV antigens semi-quantitatively. For the detection 50 μL/well culture supernatant was used and HBsAg was quantified using HBsAg chemiluminescence immunoassay (CLIA) kit (Autobio Diagnostics Co., Zhengzhou, China, Catalog number: CL0310-2), 50 μL of the supernatant was transferred to the CLIA assay plate and 50 μL of enzyme conjugate reagent was added into each well. The plates were sealed and gently agitated for 1 hour at room temperature. The supernatant-enzyme-mixture was discarded and wells were washed 6 times with 300 μL of PBS. The residual liquid was removed by plating the CLIA plate right side down on absorbent tissue paper. 25 μL of substrates A and B were added to each well. Luminance was measured using a luminometer (Mithras LB 940 Multimode Microplate Reader) after 10 minutes incubation. Dose-response curves were generated and the IC50 value was extrapolated by using the E-WorkBook Suite (ID Business Solutions Ltd., Guildford, UK). The IC50 was defined as the compound concentration at which HBsAg secretion was reduced by 50% compared to the no drug control.
The compounds according to formula I were tested for their capacity to inhibit HBsAg as described herein.

| Compound | IC50 |
| --- | --- |
| COc1cc(N2CCc3nc(-c4nccn4C)ncc3C2)cc(F)c1F [Example 1, 6-(3,4-Difluoro-5-methoxy-phenyl)-2-(1-methylimidazol-2-yl)-7,8-dihydro-5H-pyrido[4,3-d]pyrimidine] | 1160 nM |
| COc1cc(F)nc(N2CCc3nc(-n4ccnn4)ncc3C2C)c1 (stereo not drawn) [Example 2, 6-(6-Fluoro-4-methoxy-2-pyridyl)-5-methyl-2-(triazol-1-yl)-7,8-dihydro-5H-pyrido[4,3-d]pyrimidine] | 22900 nM |
| COc1cc(F)nc(N2CCc3nc(-n4nccn4)ncc3C2C)c1 (stereo not drawn) [Example 3, 6-(6-Fluoro-4-methoxy-2-pyridyl)-5-methyl-2-(triazol-2-yl)-7,8-dihydro-5H-pyrido[4,3-d]pyrimidine] | 666 nM |
| COc1cc(F)nc(N2CCc3nc(-c4ncco4)ncc3C2C)c1 (stereo not drawn) [Example 4, 2-[6-(6-Fluoro-4-methoxy-2-pyridyl)-5-methyl-7,8-dihydro-5H-pyrido[4,3-d]pyrimidin-2-yl]oxazole] | 316 nM |
| COc1cc(F)nc(N2CCc3nc(-c4nccs4)ncc3C2C)c1 (stereo not drawn) [Example 6, 2-[6-(6-Fluoro-4-methoxy-2-pyridyl)-5-methyl-7,8-dihydro-5H-pyrido[4,3-d]pyrimidin-2-yl]thiazole] | 118 nM |
| COc1cc(F)nc(N2CCc3nc(-c4nccn4C)ncc3C2C)c1 (stereo not drawn) [Example 7, 6-(6-Fluoro-4-methoxy-2-pyridyl)-5-methyl-2-(1-methylimidazol-2-yl)-7,8-dihydro-5H-pyrido[4,3-d]pyrimidine] | 16700 nM |
| COc1cc(F)nc(N2CCc3nc(-c4cn(C)cn4)ncc3C2C)c1 (stereo not drawn) [Example 8, 6-(6-Fluoro-4-methoxy-2-pyridyl)-5-methyl-2-(1-methylimidazol-4-yl)-7,8-dihydro-5H-pyrido[4,3-d]pyrimidine] | 29 nM |
| COc1cc(F)nc(N2CCc3nc(-n4cccn4)ncc3C2C)c1 (stereo not drawn) [Example 9, 6-(6-Fluoro-4-methoxy-2-pyridyl)-5-methyl-2-pyrazol-1-yl-7,8-dihydro-5H-pyrido[4,3-d]pyrimidine] | 95 nM |
| COc1cc(F)nc(N2CCc3nc(-c4cn(Cc5ccccc5)cn4)ncc3C2C)c1 (stereo not drawn) [Example 10, 2-(1-Benzylimidazol-4-yl)-6-(6-fluoro-4-methoxy-2-pyridyl)-5-methyl-7,8-dihydro-5H-pyrido[4,3-d]pyrimidine] | 421 nM |
| CC1c2cnc(-c3cscn3)nc2CCN1c1cc(N(C)C)cc(F)n1 (stereo not drawn) [Example 11, 2-Fluoro-N,N-dimethyl-6-(5-methyl-2-thiazol-4-yl-7,8-dihydro-5H-pyrido[4,3-d]pyrimidin-6-yl)pyridin-4-amine] | 26 nM |
| CC1c2cnc(-c3cscn3)nc2CCN1c1cc(F)nc(N2CCOCC2)c1 (stereo not drawn) [Example 12, 4-[6-fluoro-4-(5-methyl-2-thiazol-4-yl-7,8-dihydro-5H-pyrido[4,3-d]pyrimidin-6-yl)-2-pyridyl]morpholine] | 36 nM |
| CC1c2cnc(-c3cscn3)nc2CCN1c1cc(N2CCOCC2)cc(F)n1 (stereo not drawn) [Example 13, 4-[2-fluoro-6-(5-methyl-2-thiazol-4-yl-7,8-dihydro-5H-pyrido[4,3-d]pyrimidin-6-yl)-4-pyridyl]morpholine] | 33 nM |
| CC1c2cnc(-c3cscn3)nc2CCN1c1cc(F)cc(N2CCOCC2)n1 (stereo not drawn) [Example 14, 4-[4-fluoro-6-(5-methyl-2-thiazol-4-yl-7,8-dihydro-5H-pyrido[4,3-d]pyrimidin-6-yl)-2-pyridyl]morpholine] | 74 nM |
| COc1cc(F)nc(N2CCc3nc(-c4csc(C)n4)ncc3C2C)c1 (stereo not drawn) [Example 15, 4-[6-(6-fluoro-4-methoxy-2-pyridyl)-5-methyl-7,8-dihydro-5H-pyrido[4,3-d]pyrimidin-2-yl]-2-methyl-thiazole] | 1520 nM |
| COc1cc(F)nc(N2CCc3nc(-c4cnc(C)s4)ncc3C2C)c1 (stereo not drawn) [Example 16, 5-[6-(6-fluoro-4-methoxy-2-pyridyl)-5-methyl-7,8-dihydro-5H-pyrido[4,3-d]pyrimidin-2-yl]-2-methyl-thiazole] | 25800 nM |
| CC1c2cnc(-c3cscn3)nc2CCN1c1cc(F)nc(N2CCCC2)c1 (stereo not drawn) [Example 17, 4-[6-(2-fluoro-6-pyrrolidin-1-yl-4-pyridyl)-5-methyl-7,8-dihydro-5H-pyrido[4,3-d]pyrimidin-2-yl]thiazole] | 17 nM |
| CC1c2cnc(-c3cscn3)nc2CCN1c1cc(N2CCCC2)cc(F)n1 (stereo not drawn) [Example 18, 4-[6-(6-fluoro-4-pyrrolidin-1-yl-2-pyridyl)-5-methyl-7,8-dihydro-5H-pyrido[4,3-d]pyrimidin-2-yl]thiazole] | 16 nM |
| CC1c2cnc(-c3cscn3)nc2CCN1c1cc(F)cc(N2CCCC2)n1 (stereo not drawn) [Example 19, 4-[6-(4-fluoro-6-pyrrolidin-1-yl-2-pyridyl)-5-methyl-7,8-dihydro-5H-pyrido[4,3-d]pyrimidin-2-yl]thiazole] | 175 nM |
| CC1c2cnc(-c3cscn3)nc2CCN1c1cc(N2CCN(S(C)(=O)=O)CC2)cc(F)n1 (stereo not drawn) [Example 21, 4-[6-[6-fluoro-4-(4-methylsulfonylpiperazin-1-yl)-2-pyridyl]-5-methyl-7,8-dihydro-5H-pyrido[4,3-d]pyrimidin-2-yl]thiazole] | 16 nM |
| CC1c2cnc(-c3cscn3)nc2CCN1c1cc(F)cc(N2CCN(S(C)(=O)=O)CC2)n1 (stereo not drawn) [Example 22, 4-[6-[4-fluoro-6-(4-methylsulfonylpiperazin-1-yl)-2-pyridyl]-5-methyl-7,8-dihydro-5H-pyrido[4,3-d]pyrimidin-2-yl]thiazole] | 66 nM |
| COC1CCN(c2cc(N3CCc4nc(-c5cscn5)ncc4C3C)cc(F)n2)C1 (stereo not drawn) [Example 23, 4-[6-[2-fluoro-6-(3-methoxypyrrolidin-1-yl)-4-pyridyl]-5-methyl-7,8-dihydro-5H-pyrido[4,3-d]pyrimidin-2-yl]thiazole] | 35 nM |
| COC1CCN(c2cc(F)nc(N3CCc4nc(-c5cscn5)ncc4C3C)c2)C1 (stereo not drawn) [Example 24, 4-[6-[6-fluoro-4-(3-methoxypyrrolidin-1-yl)-2-pyridyl]-5-methyl-7,8-dihydro-5H-pyrido[4,3-d]pyrimidin-2-yl]thiazole] | 23 nM |
| COC1CCN(c2cc(F)cc(N3CCc4nc(-c5cscn5)ncc4C3C)n2)C1 (stereo not drawn) [Example 25, 4-[6-[4-fluoro-6-(3-methoxypyrrolidin-1-yl)-2-pyridyl]-5-methyl-7,8-dihydro-5H-pyrido[4,3-d]pyrimidin-2-yl]thiazole] | 60 nM |
| COc1cc(F)nc(N2CCc3nc(-c4cc[nH]n4)ncc3C2C)c1 (stereo not drawn) [Example 27, 6-(6-Fluoro-4-methoxy-2-pyridyl)-5-methyl-2-(1H-pyrazol-3-yl)-7,8-dihydro-5H-pyrido[4,3-d]pyrimidine] | 230 nM |
| CC1c2cnc(-c3cscn3)nc2CCN1c1cc(F)nc(N2CCNC(=O)C2)c1 (stereo not drawn) [Example 28, 4-[6-fluoro-4-(5-methyl-2-thiazol-4-yl-7,8-dihydro-5H-pyrido[4,3-d]pyrimidin-6-yl)-2-pyridyl]piperazin-2-one] | 42 nM |
| CC1c2cnc(-c3cscn3)nc2CCN1c1cc(N2CCNC(=O)C2)cc(F)n1 (stereo not drawn) [Example 29, 4-[2-fluoro-6-(5-methyl-2-thiazol-4-yl-7,8-dihydro-5H-pyrido[4,3-d]pyrimidin-6-yl)-4-pyridyl]piperazin-2-one] | 34 nM |
| CC1c2cnc(-c3cscn3)nc2CCN1c1cc(F)cc(N2CCNC(=O)C2)n1 (stereo not drawn) [Example 30, 4-[4-fluoro-6-(5-methyl-2-thiazol-4-yl-7,8-dihydro-5H-pyrido[4,3-d]pyrimidin-6-yl)-2-pyridyl]piperazin-2-one] | 21 nM |
